Measurements reported in patent US10066025B2, “Compositions and methods for detecting, treating and preventing diseases and disorders” (YALE UNIVERSITY, priority 2012, dated 2018).

Test system: HK-2 cells
Assay: HK-2 cell necrosis induced with 2 mM H2O2 (LDH release)
Type: cell-based, human
Conditions: at 2 and 4 hrs
Procedure: HK2 cells (human proximal tubular line) obtained from ATTC (Manassas, Va., USA) were cultured in DMEM/F12 supplemented with glutamine, 10% FBS and antibiotics, and were maintained at 37° C. in 5% CO2. Cells were exposed to cisplatin (20 μM) in the presence or absence of renalase for 24 hrs, and cell viability was assessed by the WST1 method (Roche Applied Science, Germany). Cells were then harvested in RIPA buffer (20 mM Tris-HCl pH 7.5, 150 mM NaCl, 1 mM Na2EDTA, 1 mM EGTA, 1% NP-40, 1% sodium deoxycholate, 2.5 mM sodium pyrophosphate, 1 mM β-glycerophosphate, 1 mM Na3VO4, 1 μg/ml leupeptin) supplemented with a protease and phosphatase inhibitor cocktail (Roche Applied Science, Germany). Proteins were separated by SDS-PAGE and Western blotting was carried out using the following antibodies: anti-renalase monoclonal (Desir et al., 2012, J Am Heart Assoc. 1:e002634; (Lee et al., 2013, J Am Soc Nephrol 24:445-455); anti caspase 3 (Cell Signaling Technology, MA, USA) and anti Bcl2 (Thermo Scientific, USA). Necrotic injury in HK-2 cells (ATCC, Manassas, Va.) was induced with exposure to 2 mM H2O2 for 2-8 hr and lactate dehydrogenase (LDH) released into cell culture media was measured as described using a commercial LDH assay kit (Promega, Madison, Wis.) (Lee and Emala, 2002, American journal of physiology. Renal physiology 282:F844-852).

Substance: RP H220: histidine tagged RP-220, SEQ ID NO: 4, HHHHHHCIRFVSIDNKKRNIESSEIG (listed as Homo sapiens)
- necrosis induced with 2 mM H2O2: significantly reduced necrosis
